Results: patent US5254577A, “Aminomethyloxooxazolidinyl arylbenzene derivatives useful as antibacterial agents” (The Du Pont Merck Pharmaceutical Company, priority 1992, dated 1993)
Values after ≈ are worked out from the molar mass of the structure shown. Like-named read-outs stand apart in the source and are kept apart here. One block for each molecule: values may come before it.

Legend:
Escherichia coli = assay: In vitro broth microdilution, 24-hour minimal inhibitory concentration (MIC); type: cell-based; conditions: Mueller-Hinton broth; for MIC: read-out: Minimum Inhibitory Concentration
Description: (§1) A standard microdilution method (National Committee for Clinical Standards. Tentative standard M7-T. Standard methods for dilution antimicrobial susceptibility tests for bacteria that grow aerobically. National Committee for Clinical Laboratory Standards, Villanova, Pa. 1982) with Mueller-Hinton broth is used to determine the 24-hour minimal inhibitory concentrations (MIC's) for test strains of Staphylococcus aureus and Escherichia coli.

Staphylococcus aureus [1] = assay: as above; type: cell-based; conditions: Mueller-Hinton broth; for MIC: read-out: Minimum Inhibitory Concentration
Description: as §1

Staphylococcus aureus [2] = assay: In vivo activity against Staphylococcus aureus in an acute lethal mouse model; conditions: mice infected intraperitoneally, dosed 1 h and 4 h post-infection, survivors on seventh day
Description: The in vivo potency of these compounds is exemplified by the data summarized in Table X. Determinations of in vivo efficacy are performed by inoculating mice intraperitoneally with cultures of the infecting organism diluted to produce 100% mortality in control animals within twenty-four hours. The culture of S. aureus used to infect the animals was diluted to the required bacterial density using 5% aqueous hog gastric mucin. The compounds are dissolved or suspended in 0.25% aqueous Methocel® (Methocel®: Hydroxypropyl Methylcullulose, E15 Premium, Dow Chemical Company) for oral administration or sterile distilled water containing 5% dimethylsulfoxide (Fisher Scientific Company, Fairlawn, N.J.) for subcutaneous administration. The mice are dosed at one hour and at four hours post-infection. Mortality is recorded daily until test determination seven days post infection. The number of survivors in each treatment group on the seventh day after infection is used in the calculation of the ED50, the dose of compound that protects 50% of the mice (Litchfield,J. T. and Wildoxon. A simulated method for evaluating dose-effect experiments. J. Pharmacol Exp. Ther., 98:99-113, 1949).

[3] = Staphylococcus aureus, 168 h, Oral Administration, read-out: ED50
[4] = Staphylococcus aureus, sc, 168 h, Subcutaneous Administration, read-out: ED50

SMILES: CC(=O)NC[C@H]1CN(c2ccc(-c3ccncc3)cc2)C(=O)O1 [Example 85, (l)-N-[3-(4-(4-Pyridyl)phenyl)-2-oxooxazolidin-5-ylmethyl]acetamide]
MIC (Escherichia coli): > 128 µg/mL
MIC (Staphylococcus aureus [1]): < 0.13 µg/mL
ED50 (Staphylococcus aureus [2]; [3]): 1.3 mg/kg
ED50 (Staphylococcus aureus [2]; [4]): 0.5 mg/kg

SMILES: CC(=O)NC[C@H]1CN(c2ccc(-c3csc(N)n3)cc2)C(=O)O1 [Example 134]
MIC (Escherichia coli): > 128 µg/mL
MIC (Staphylococcus aureus [1]): 8 µg/mL (≈ 24.1 µM)
ED50 (Staphylococcus aureus [2]; [3]): 56.5 mg/kg
ED50 (Staphylococcus aureus [2]; [4]): 47 mg/kg

SMILES: CC(=O)NC[C@H]1CN(c2ccc(-c3ccc(C#N)cc3)cc2)C(=O)O1 [Example 37, (l)-N-[3-(4-(4'-Cyanophenyl)phenyl)-2-oxooxazolidin-5-ylmethyl]acetamide]
MIC (Escherichia coli): > 128 µg/mL
MIC (Staphylococcus aureus [1]): 0.25 µg/mL (≈ 0.745 µM)
ED50 (Staphylococcus aureus [2]; [3]): < 1.2 mg/kg
ED50 (Staphylococcus aureus [2]; [4]): 0.6 mg/kg

SMILES: CSc1ccc(-c2ccc(N3C[C@H](CNC(C)=O)OC3=O)cc2)cc1 [Example 67, (l)-N-[3-(4-(4'-methylthiophenyl)phenyl)-2-oxooxazolidin-5-ylmethyl]acetamide]
MIC (Escherichia coli): > 128 µg/mL
MIC (Staphylococcus aureus [1]): 0.25 µg/mL (≈ 0.701 µM)
ED50 (Staphylococcus aureus [2]; [3]): 4.5 mg/kg
ED50 (Staphylococcus aureus [2]; [4]): 30 mg/kg

MIC (Escherichia coli): > 128 µg/mL
MIC (Staphylococcus aureus [1]): < 0.13 µg/mL
SMILES: CCCCCCCCN=Cc1ccc(-c2ccc(N3C[C@H](CNC(C)=O)OC3=O)cc2)cc1 [Example 48]

SMILES: CC(=O)NC[C@H]1CN(c2ccc(-c3ccc(C(C)OC(=O)CCC(=O)O)cc3)cc2)C(=O)O1 (stereo partly shown) [Example 29]
MIC (Escherichia coli): > 128 µg/mL
MIC (Staphylococcus aureus [1]): 4 µg/mL (≈ 8.8 µM)
ED50 (Staphylococcus aureus [2]; [3]): 16.1 mg/kg
ED50 (Staphylococcus aureus [2]; [4]): 9.8 mg/kg

SMILES: CC(=O)NC[C@H]1CN(c2ccc(-c3cnco3)cc2)C(=O)O1 [Example 136]
MIC (Escherichia coli): > 128 µg/mL
MIC (Staphylococcus aureus [1]): 1 µg/mL (≈ 3.32 µM)
ED50 (Staphylococcus aureus [2]; [3]): 14.8 mg/kg
ED50 (Staphylococcus aureus [2]; [4]): 51.9 mg/kg

MIC (Escherichia coli): > 128 µg/mL
MIC (Staphylococcus aureus [1]): < 0.13 µg/mL
SMILES: COc1ccc(-c2ccc(N3C[C@H](CNC(C)=O)OC3=O)cc2)cc1 [Example 75]

MIC (Escherichia coli): > 128 µg/mL
MIC (Staphylococcus aureus [1]): 16 µg/mL (≈ 45.3 µM)
SMILES: CC(=O)NCC1CN(c2ccc(-c3ccc(N(C)C)cc3)cc2)C(=O)O1 (stereo not shown) [Example 115]

SMILES: CC(=O)NC[C@H]1CN(c2ccc(-c3ccc(CN(CCO)CCO)cc3)cc2)C(=O)O1 [Example 50]
MIC (Escherichia coli): > 128 µg/mL
MIC (Staphylococcus aureus [1]): 0.5 µg/mL (≈ 1.17 µM)
ED50 (Staphylococcus aureus [2]; [4]): 6.5 mg/kg

SMILES: CC(=O)NC[C@H]1CN(c2ccc(-c3ccc(C(C)=O)cc3)cc2)C(=O)O1 [Example 4, (l)-N-[3-(4-(4'-Acetylphenyl)phenyl)-2-oxooxazolidin-5-ylmethyl]acetamide]
MIC (Escherichia coli): > 128 µg/mL
MIC (Staphylococcus aureus [1]): 0.5 µg/mL (≈ 1.42 µM)
ED50 (Staphylococcus aureus [2]; [3]): 22 mg/kg
ED50 (Staphylococcus aureus [2]; [4]): 39.7 mg/kg

SMILES: CC(=O)NC[C@H]1CN(c2ccc(-c3ccnc(N)n3)cc2)C(=O)O1 [Example 135]
MIC (Escherichia coli): > 128 µg/mL
MIC (Staphylococcus aureus [1]): 4 µg/mL (≈ 12.2 µM)
ED50 (Staphylococcus aureus [2]; [3]): 68 mg/kg

SMILES: CC(=O)NCC1CN(c2ccc(-c3ccc(S(C)(=O)=O)cc3)cc2)C(=O)O1 (stereo not shown) [Example 69, (l)-N-[3-(4-(4'-Methylsulfonylphenyl)phenyl)-2-oxooxazolidin-5-ylmethyl]acetamide]
Minimum Inhibitory Concentration (Escherichia coli): > 128 µg/mL
Minimum Inhibitory Concentration (Staphylococcus aureus [1]): 0.25 µg/mL
ED50 (Staphylococcus aureus [2]; Oral Administration, 10080 min): 4 mg/kg
ED50 (Staphylococcus aureus [2]; Subcutaneous Administration, 10080 min): 1.2 mg/kg

SMILES: CC(=O)NC[C@H]1CN(c2ccc(-c3ccc(CO)cc3)cc2)C(=O)O1 [Example 28]
MIC (Escherichia coli): > 128 µg/mL
MIC (Staphylococcus aureus [1]): < 0.13 µg/mL
ED50 (Staphylococcus aureus [2]; [3]): 52.6 mg/kg
ED50 (Staphylococcus aureus [2]; [4]): 30 mg/kg

SMILES: CC(=O)NC[C@H]1CN(c2ccc(-c3ccc(C(O)C(C)CN4CCN(C)CC4)cc3)cc2)C(=O)O1 (stereo partly shown) [Example 64]
MIC (Escherichia coli): > 128 µg/mL
MIC (Staphylococcus aureus [1]): 4 µg/mL (≈ 8.32 µM)
ED50 (Staphylococcus aureus [2]; [3]): 50 mg/kg
ED50 (Staphylococcus aureus [2]; [4]): 11 mg/kg

SMILES: CC(=O)NC[C@H]1CN(c2ccc(-c3cccc(N)c3)cc2)C(=O)O1 [Example 73]
MIC (Escherichia coli): > 128 µg/mL
MIC (Staphylococcus aureus [1]): 0.5 µg/mL (≈ 1.54 µM)
ED50 (Staphylococcus aureus [2]; [3]): 11.8 mg/kg
ED50 (Staphylococcus aureus [2]; [4]): 5 mg/kg

SMILES: CC(=O)NC[C@H]1CN(c2ccc(-c3ccc(C(C)=NO)cc3)cc2)C(=O)O1 [Example 22, (l)-N-[3-(4-(4'-(1-Hydroxyiminoethyl)phenyl)phenyl)-2-oxooxazolidin-5-ylmethyl]acetamide]
MIC (Escherichia coli): > 128 µg/mL
MIC (Staphylococcus aureus [1]): 0.25 µg/mL (≈ 0.68 µM)
ED50 (Staphylococcus aureus [2]; [3]): > 90 mg/kg
ED50 (Staphylococcus aureus [2]; [4]): > 90 mg/kg

SMILES: CC(=O)NC[C@H]1CN(c2ccc(-c3ccc(C(=O)CCN(C)C)cc3)cc2)C(=O)O1 [Example 57, (l)-N-[3-(4-(4'-(3-N,N-dimethylaminopropionyl)phenyl)phenyl)-2-oxooxazolidin-5-ylmethyl]acetamide]
MIC (Escherichia coli): > 128 µg/mL
MIC (Staphylococcus aureus [1]): 1 µg/mL (≈ 2.44 µM)
ED50 (Staphylococcus aureus [2]; [3]): 18 mg/kg
ED50 (Staphylococcus aureus [2]; [4]): 10 mg/kg
